Like-named read-outs stand apart in the source and are kept apart here.

The target in one assay is human RIPK1 (Homo sapiens (Human), UniProt Q13546). The assay is described as follows: KINOMEscan binding assay, human RIPK1. The conditions noted are these: equilibrium dissociation constant. Summed up: (§1)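 Kd values come from dose-response fits to the Hill equation (Hill slope −1, Levenberg–Marquardt least squares). Compound competed with bead-bound ligand for tagged kinase, and remaining kinase was measured by qPCR after elution. Dilution series: 11 points, 3-fold, 1% DMSO final, top 30,000 nM in most runs.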
human RIPK1, sequence (Q13546 whole entry): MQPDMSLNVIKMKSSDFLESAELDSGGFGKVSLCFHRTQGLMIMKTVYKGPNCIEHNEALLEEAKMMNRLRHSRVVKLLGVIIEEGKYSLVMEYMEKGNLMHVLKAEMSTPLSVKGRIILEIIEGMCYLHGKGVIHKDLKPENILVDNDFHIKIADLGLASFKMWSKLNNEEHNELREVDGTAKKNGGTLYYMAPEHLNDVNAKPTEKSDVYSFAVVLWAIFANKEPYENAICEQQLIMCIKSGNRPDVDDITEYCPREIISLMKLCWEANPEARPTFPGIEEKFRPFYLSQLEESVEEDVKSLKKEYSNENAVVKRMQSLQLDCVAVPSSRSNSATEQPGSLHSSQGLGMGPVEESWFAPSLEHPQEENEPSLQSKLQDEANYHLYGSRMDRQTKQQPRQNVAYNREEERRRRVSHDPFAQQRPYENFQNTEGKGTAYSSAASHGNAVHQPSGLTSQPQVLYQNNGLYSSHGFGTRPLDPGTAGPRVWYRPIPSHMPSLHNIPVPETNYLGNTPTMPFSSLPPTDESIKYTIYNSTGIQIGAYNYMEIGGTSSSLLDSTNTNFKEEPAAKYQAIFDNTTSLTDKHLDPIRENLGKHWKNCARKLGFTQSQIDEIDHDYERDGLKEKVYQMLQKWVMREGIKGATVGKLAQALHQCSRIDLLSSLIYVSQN

A further assay deals with human RIPK3 (Homo sapiens (Human), UniProt Q9Y572). The assay is described as follows: KINOMEscan binding assay, human RIPK3. The conditions noted are these: equilibrium dissociation constant. Summed up: as §1
human RIPK3, sequence (Q9Y572 whole entry): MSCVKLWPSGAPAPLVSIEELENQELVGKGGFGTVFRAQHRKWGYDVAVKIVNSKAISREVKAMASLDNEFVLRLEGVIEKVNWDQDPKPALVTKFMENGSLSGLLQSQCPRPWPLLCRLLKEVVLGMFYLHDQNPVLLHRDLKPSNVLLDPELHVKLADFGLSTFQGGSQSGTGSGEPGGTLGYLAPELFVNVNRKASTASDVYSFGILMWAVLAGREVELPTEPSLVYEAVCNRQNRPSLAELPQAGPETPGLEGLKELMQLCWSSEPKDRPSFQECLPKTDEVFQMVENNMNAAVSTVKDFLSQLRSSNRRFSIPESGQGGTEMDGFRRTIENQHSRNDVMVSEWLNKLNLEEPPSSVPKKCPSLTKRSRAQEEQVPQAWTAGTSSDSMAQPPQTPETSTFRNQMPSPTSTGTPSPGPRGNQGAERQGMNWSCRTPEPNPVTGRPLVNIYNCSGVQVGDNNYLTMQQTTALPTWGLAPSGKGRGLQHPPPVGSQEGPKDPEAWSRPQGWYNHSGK
A further assay addresses human MLKL (full length) (Homo sapiens (Human), UniProt Q8NB16). In words: KINOMEscan binding assay, human MLKL (full length). The settings on record: equilibrium dissociation constant. Summed up: as §1
A further assay addresses mouse MLKL (full length) (Mus musculus (Mouse), UniProt Q9D2Y4). In words: KINOMEscan binding assay, mouse MLKL (full length). The conditions noted are these: equilibrium dissociation constant. The procedure:
Binding affinity of the test compounds for human MLKL (full length), mouse MLKL (full length), human RIPK1 and human RIPK3 was determined using the KINOMEscan™ technology developed by DiscoverX (USA; http://www.discoverx.com). The assay was conducted according to manufacturer instructions.
Kinase assays. For most assays, kinase-tagged T7 phage strains were grown in parallel in 24-well blocks in an E. coli host derived from the BL21 strain. E. coli were grown to log-phase and infected with T7 phage from a frozen stock (multiplicity of infection=0.4) and incubated with shaking at 32° C. until lysis (90-150 minutes). The lysates were centrifuged (6,000×g) and filtered (0.2 μm) to remove cell debris. The remaining kinases were produced in HEK-293 cells and subsequently tagged with DNA for qPCR detection. […] The liganded beads were blocked with excess biotin and washed with blocking buffer (SeaBlock (Pierce), 1% BSA, 0.05% Tween 20, 1 mM DTT) to remove unbound ligand and to reduce non-specific phage binding. […] All reactions were performed in polypropylene 384-well plates in a final volume of 20 μL. […] The kinase concentration in the eluates was measured by qPCR.
An 11-point 3-fold serial dilution of each test compound was prepared in 100% DMSO at 100× final test concentration and subsequently diluted to 1× in the assay (final DMSO concentration=1%). Most Kos were determined using a compound top concentration=30,000 nM.
KD for each test compound was calculated with a standard dose-response curve using the Hill equation (equation (1)): […]
The Hill Slope was set to −1.
Curves were fitted using a non-linear least square fit with the Levenberg-Marquardt algorithm.

Assay [1] has as its system U937 human histiocytic leukemia cell line. In words: Inhibition of TSQ induced necroptosis in U937 cells (CellTitre-Glo). The conditions noted are these: 48 hours, read-out: Inhibition of TSQ-induced necroptosis (IC50 cell-based assay). Summed up:
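Necroptosis was induced with TNF-Fc (100 ng/ml), Smac mimetic (500 nM) and Q-VD-OPh (10 μM) in 20000 U937 cells/well exposed to a 10-point, 3-fold compound series (top 36 μM, 0.3% DMSO). ATP luminescence read after 48 h; 4-parameter fit gave IC50. Parallel TSQ-free wells assessed compound toxicity.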

A further assay has as its system U937 cells. The assay is described as follows: Counter screen: U937 cell viability without TSQ cocktail (off-target effect). The settings on record: read-out: Off-target effect (IC50 cell-based assay). Details: species or system human. Summed up:
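Off-target viability counter screen: compounds titrated 36 μM down 1:3 over 10 points (0.3% DMSO) on 20,000 U937 cells/well, no TNF/Smac mimetic/Q-VD-OPh added, 48 h incubation. ATP-based CellTiter-Glo luminescence, four-parameter logistic IC50.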

The subject of assay [2] is Immortalised Mouse Dermal Fibroblasts (MDFs). The assay is described as follows: Inhibition of TSI induced necroptosis in mouse dermal fibroblasts (CellTitre-Glo). The conditions noted are these: MDF cells, TSI cocktail (TNF, Smac mimetic, IDN-6556), read-out: Inhibition of TSI-induced necroptosis (IC50 cell-based assay) in MDF. The procedure:
Cellular Assay: Screening Compounds for Inhibition of TSI Induced Necroptosis in, 384 well plate format. • Cell Line ID: Immortalised Mouse Dermal Fibroblasts (MDFs). • Cell Concentration (cells/well): Final cell density is 2200 cells per well. • Cell growth medium: DMEM medium+7.4% Fetal Bovine Serum (FBS). Cells are cultured in Corning 150 cm^2 tissue culture flasks with vented caps at 37° C./10% CO2. • Incubation: Plates were incubated for 30 minutes following addition of compounds and then 3 hours incubation with death stimuli (TSI cocktail) at 37° C./10% CO2 in a humidified incubator. • Compound concentration: 36 μM starting concentration, 1:3 dilution, 10 point • DMSO final concentration (% v/v): 0.3%. Compounds in TSI Cocktail (T: TNF; S: Smac Mimetic; I: IDN-6556) and their Final Concentrations: • rhTNF (100 ng/ml) • Compound A (500 nM)—Smac mimetic, Tetralogic and SYNthesis med chem • IDN-6556 (10 μM)—Selleckchem (S7775)
The cellular assay was carried out according to the following steps: • 1. Each well was prepared by sequential addition of: • a. 40 μL of cell suspension (5.5×10^4 cells/mL) was added to each well to provide a final cell concentration of 2,200 cells per well. • b. After 24 hours, DMSO (control; columns 1-2 and 23-24) or compound in DMSO—addition was performed using acoustic transfer of nL volumes of stock compound to give final test concentrations of 36, 12, 4, 1.3, 0.44, 0.148, 0.049, 0.016, 0.005 and 0.002 μM. All wells were backfilled with DMSO to a final total volume in the well of 100 nL. • c. Following compound/DMSO addition in step (b), Plates were incubated for 30 minutes at 37° C./10% CO2 in a humidified incubator and then 10 μL of 5×TSI cocktail (except to positive controls; columns 2 and 24) was added to each well. • 2. After 3 hours, plate was removed from the 37° C. incubator and equilibrated to room temperature for 15 minutes. • 3. 15 μL of room temperature CellTitre-Glo2™ (Promega™) was added to each well. • 4. Shook plates for 2 minutes (˜600 rpm) and incubated at room temperature for 15 minutes to allow signal to stabilise. • 5. Read luminescence readout on a plate reader.
Percent viability was calculated for each compound according to equation (2): […]
10 point titration curves were fitted with the 4 parameter logistic nonlinear regression model and the IC50 reported reflect the inflection point of the curve for curve fitting.
• Assay involving the TSI cocktail (T: TNF; S: Smac mimetic; I: IDN-6556): TSI treatment ensures that cells specifically undergo necroptotic cell death. TNF activates the TNF receptor, Smac mimetic directs the signal away from proinflammatory signaling and toward the RIPK1/RIPK3-mediated cell death pathways, and IDN-6556 (Caspase inhibitor) ensures that the apoptotic response is blocked leaving only the programmed necrosis response. The compounds' activity (solution in DMSO) tested in this TSI-induced assay was evaluated by determining the number of viable cells in culture by measuring the amount of ATP present as measured by CelltiterGlo.

[3] abbreviates: Homo sapiens, U-937, TSQ cocktail (TNF, Smac mimetic, Q-VD-OPh).
The mark [4] stands for this setting: Homo sapiens, U-937, compound without TSQ cocktail.
[5] abbreviates: TSQ cocktail (TNF, Smac mimetic, Q-VD-OPh).

human MLKL (full length), sequence (Q8NB16 whole entry): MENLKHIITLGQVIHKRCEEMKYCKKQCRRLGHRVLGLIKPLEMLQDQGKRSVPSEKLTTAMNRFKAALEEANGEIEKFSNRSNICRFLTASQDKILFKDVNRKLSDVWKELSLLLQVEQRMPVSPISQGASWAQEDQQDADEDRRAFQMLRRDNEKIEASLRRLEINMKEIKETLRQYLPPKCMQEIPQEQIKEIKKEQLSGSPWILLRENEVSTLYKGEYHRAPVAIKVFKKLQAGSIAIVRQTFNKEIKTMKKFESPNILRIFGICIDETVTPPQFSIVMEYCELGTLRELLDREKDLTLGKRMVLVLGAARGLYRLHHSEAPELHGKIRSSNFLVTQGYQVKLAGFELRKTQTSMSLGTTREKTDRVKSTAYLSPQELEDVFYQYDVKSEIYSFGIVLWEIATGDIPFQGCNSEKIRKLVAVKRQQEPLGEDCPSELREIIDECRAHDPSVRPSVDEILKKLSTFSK
mouse MLKL (full length), sequence (Q9D2Y4 whole entry): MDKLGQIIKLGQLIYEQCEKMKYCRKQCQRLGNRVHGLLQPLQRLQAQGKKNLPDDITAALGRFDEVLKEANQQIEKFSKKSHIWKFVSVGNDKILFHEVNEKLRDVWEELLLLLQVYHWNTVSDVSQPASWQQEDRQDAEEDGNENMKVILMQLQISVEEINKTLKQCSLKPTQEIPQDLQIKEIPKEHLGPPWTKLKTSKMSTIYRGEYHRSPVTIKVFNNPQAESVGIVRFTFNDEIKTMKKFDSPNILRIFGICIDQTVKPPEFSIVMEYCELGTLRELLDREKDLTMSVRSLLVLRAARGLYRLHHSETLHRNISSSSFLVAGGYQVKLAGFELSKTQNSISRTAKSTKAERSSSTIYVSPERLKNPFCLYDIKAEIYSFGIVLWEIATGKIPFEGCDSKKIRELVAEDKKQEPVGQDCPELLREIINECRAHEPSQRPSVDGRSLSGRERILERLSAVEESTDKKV

Take `Nc1ncc(-c2cnn(C3CCOCC3)c2)c2occ(-c3ccc(NS(=O)(=O)C(F)F)c(OCc4ccc(F)cc4)c3)c12` [Compound 5, N-(4-(4-amino-7-(1-(tetrahydro-2H-pyran-4-yl)-1H-pyrazol-4-yl)furo[3,2-c]pyridin-3-yl)-2-((4-fluorobenzyl)oxy)phenyl)-1,1-difluoromethanesulfonamide]: the dissociation constant Kd (in general, the equilibrium constant for the complex coming apart) on human RIPK1 is over 10000 nM; on human RIPK3, over 10000 nM; at human MLKL (full length), under 1 nM; at mouse MLKL (full length), under 1 nM.

In the case of `[2H]C([2H])([2H])N1CCC(n2cc(-c3cnc(N)c4c(-c5ccc(NS(=O)(=O)C(F)F)c(O[C@@H](C)c6ccc(F)cc6)c5)nn(C)c34)cn2)CC1(C)C` (stereo partly drawn) [Compound 152, N-(4-(4-amino-7-(1-(2,2-dimethyl-1-(methyl-d3)piperidin-4-yl)-1H-pyrazol-4-yl)-1-methyl-1H-pyrazolo[4,3-c]pyridin-3-yl)-2-((S)-1-(4-fluorophenyl)ethoxy)phenyl)-1,1-difluoromethanesulfonamide], the IC50 – broadly, the concentration at which inhibition is half-maximal – in assay [1] (setting [3]) is under 10 nM; with U937 cells (setting [4]), over 10000 nM; in assay [2] (Mus musculus, Fibroblast, 3 h), 100 to 1000 nM.

For the compound `C[C@H](Oc1cc(-c2coc3c(-c4cnn(C)c4)cnc(N)c23)ccc1NS(=O)(=O)C(F)F)c1ccc(F)cc1` [Compound 8, (S)-N-(4-(4-amino-7-(1-methyl-1H-pyrazol-4-yl)furo[3,2-c]pyridin-3-yl)-2-(1-(4-fluorophenyl)ethoxy)phenyl)-1,1-difluoromethanesulfonamide], the equilibrium dissociation constant (Kd) at human RIPK1 is over 10000 nM; on human RIPK3, over 10000 nM; on human MLKL (full length) it was under 1 nM; on mouse MLKL (full length), under 1 nM.

As for `C[C@H](Oc1cc(-c2nn(C)c3c(-c4cnn(C5CCN(C)C(C(F)F)C5)c4)cnc(N)c23)ccc1NS(=O)(=O)C(F)F)c1ccc(F)cc1` (stereo partly drawn) [Compound 158, N-(4-(4-amino-7-(1-(2-(difluoromethyl)-1-methylpiperidin-4-yl)-1H-pyrazol-4-yl)-1-methyl-1H-pyrazolo[4,3-c]pyridin-3-yl)-2-((S)-1-(4-fluorophenyl)ethoxy)phenyl)-1,1-difluoromethanesulfonamide], the IC50 is under 10 nM in assay [1] (setting [3]); over 10000 nM with U937 cells (setting [4]); under 100 nM in assay [2] (Mus musculus, Fibroblast, 3 h). At human MLKL (full length), this compound showed a Kd of 1 to 100 nM.

`Nc1n[nH]c2nccc(-c3ccc(NS(=O)(=O)C(F)F)c(OCc4ccc(F)cc4)c3)c12` [Compound 66, N-(4-(3-Amino-1H-pyrazolo[3,4-b]pyridin-4-yl)-2-((4-fluorophenyl)methoxy)phenyl)-1,1-difluoromethanesulfonamide]: the Kd on human RIPK1 is over 10000 nM; at human RIPK3, over 10000 nM; on human MLKL (full length), under 1 nM; on mouse MLKL (full length) it was 1 to 100 nM.

`C[C@H](Oc1cc(-c2nn(C)c3c(-c4cnn(C5CCNC(C(F)(F)F)C5)c4)cnc(N)c23)ccc1NS(=O)(=O)C(F)F)c1ccc(F)cc1` (stereo partly drawn) [Compound 149, N-(4-(4-amino-1-methyl-7-(1-(2-(trifluoromethyl)piperidin-4-yl)-1H-pyrazol-4-yl)-1H-pyrazolo[4,3-c]pyridin-3-yl)-2-((S)-1-(4-fluorophenyl)ethoxy)phenyl)-1,1-difluoromethanesulfonamide]: the 50% inhibitory concentration (IC50) is under 10 nM in assay [1] (setting [3]); over 10000 nM with U937 cells (setting [4]); 100 to 1000 nM in assay [2] (Mus musculus, Fibroblast, 3 h).

Take `C[C@H](Oc1cc(-c2nn(C)c3c(-c4cnn(C5CCOCC5)c4)cnc(N)c23)ccc1NS(=O)(=O)C(F)F)c1ccc(Cl)cc1` [Compound 137, (S)-N-(4-(4-amino-1-methyl-7-(1-(tetrahydro-2H-pyran-4-yl)-1H-pyrazol-4-yl)-1H-pyrazolo[4,3-c]pyridin-3-yl)-2-(1-(4-chlorophenyl)ethoxy)phenyl)-1,1-difluoromethanesulfonamide]: the 50% inhibitory concentration (IC50) is under 10 nM in assay [1] (setting [3]); over 10000 nM with U937 cells (setting [4]); 1000 to 10000 nM in assay [2] (Mus musculus, Fibroblast, 3 h).

Turning to `C[C@H](Oc1cc(-c2nn(C)c3c(-c4cnn(C5CCN(C)C6(CC6)C5)c4)cnc(N)c23)ccc1NS(=O)(=O)C(F)F)c1ccc(F)cc1` (single isomer, unassigned) [Compound 171, N-(4-(4-amino-1-methyl-7-(1-((R*)-4-methyl-4-azaspiro[2.5]octan-7-yl)-1H-pyrazol-4-yl)-1H-pyrazolo[4,3-c]pyridin-3-yl)-2-((S)-1-(4-fluorophenyl)ethoxy)phenyl)-1,1-difluoromethanesulfonamide], the Kd was over 10000 nM on human RIPK1, over 10000 nM at human RIPK3 and 1 to 100 nM on human MLKL (full length). Besides, the IC50 in assay [1] (setting [5]) was 10 to 1000 nM; in the assay with U937 cells (compound without TSQ cocktail), over 10000 nM; in assay [2] (3 hours) it was under 100 nM.

As to `C[C@H](Oc1cc(-c2nn(C)c3c(-c4cnn(C5CCN(C)C(C)(C)C5)c4)cnc(N)c23)ccc1NS(=O)(=O)C(F)F)c1ccc(F)cc1` (single isomer, unassigned) [Compound 155, N-(4-(4-amino-1-methyl-7-(1-((S*)-1,2,2-trimethylpiperidin-4-yl)-1H-pyrazol-4-yl)-1H-pyrazolo[4,3-c]pyridin-3-yl)-2-((S)-1-(4-fluorophenyl)ethoxy)phenyl)-1,1-difluoromethanesulfonamide], the Kd at human RIPK1 was over 10000 nM; on human RIPK3 it was over 10000 nM; at human MLKL (full length), 1 to 100 nM. In addition, the values for the half-maximal inhibitory concentration (IC50) (in assay [1] (setting [5]); in the assay on U937 cells (compound without TSQ cocktail); in assay [2] (3 hours)) were under 10 nM, over 10000 nM and 100 to 1000 nM, respectively.

For the origin of these results see US20250059188A1, “ARYLSULPHONAMIDE COMPOUNDS” (Anaxis Pharma Pty Ltd, priority 2021, published 2025).
